Measured values: US20120329731A1 (priority 2006, published 2012)
Where two headings read alike, the source gives them in different places.

How the values were obtained:
righting reflex = conditions: mouse, in vivo, ip
cyanide poisoning = system: cyanide poisoning; set-up: species or system mice; conditions: mouse, in vivo

| SMILES | Screen Righting time (Ave ± SE) (righting reflex) [s] | % S (percent survivors) (cyanide poisoning) [%] | P.I. (protective index) (cyanide poisoning) | Screen Righting time (Ave ± SE) (cyanide poisoning) [min] | % S (percent survivors) (cyanide poisoning; po) [%] | P.I. (protective index: recovery time CN-treated / recovery time PD-treated) (cyanide poisoning) | Protective Indices compared with the combination of nitrite and thiosulfate (cyanide poisoning; ip) | antidotal activity when administered by the oral route (cyanide poisoning; po) |
| --- | --- | --- | --- | --- | --- | --- | --- | --- |
| O.O.O.O.O=C(O)C1(O)CSC(O)(C(=O)O)CS1.[Na].[Na] (stereo not shown) [13 (X = Na), Disodium 2,5-dihydroxy-1,4-dithiane-2,5-dicarboxylic acid tetrahydrate] | 14.0 ± 2.3 | 100 | 4.0 | 17.0 ± 3.3 | 100 |  |  |  |
| N[C@@H](CCC(=O)N[C@@H](CSSC[C@H](N)C(=O)O)C(=O)NCC(=O)O)C(=O)O [CySSG, reference compound] | 8.8 ± 2.2 | 100 | 2.5 | 27.7 ± 2.7 | 100 |  |  |  |
| C/C1=C2/[N-][C@H]([C@H](CC(N)=O)[C@@]2(C)CCC(=O)NC[C@@H](C)OP(=O)([O-])O[C@H]2[C@@H](O)[C@@H](n3cnc4cc(C)c(C)cc43)O[C@@H]2CO)[C@]2(C)N=C(/C(C)=C3N=C(/C=C4N=C1[C@@H](CCC(N)=O)C\4(C)C)[C@@H](CCC(N)=O)[C@]\3(C)CC(N)=O)[C@@H](CCC(N)=O)[C@]2(C)CC(N)=O.[Co+3].[OH-] [H, Hydroxocobalamin, reference compound] | 7.1 ± 0.6 | 100 |  |  |  | 5.2 |  |  |
| CCOC(=O)C1(O)CSC(O)(C(=O)OCC)CS1 (stereo not shown) [PD 2, 2,5-Dihydroxy-2,5-dicarbethoxy-1,4-dithiane] | 21.2 ± 1.2 | 100 |  |  | 100 | 7.6 | generally superior | retain their antidotal activity |
